From US10407381B2 (THE BOARD OF TRUSTEES OF THE UNIVERSITY OF ILLINOIS, priority 2015, dated 2019)
Like-named read-outs stand apart in the source and are kept apart here.

Key:
[1] = target: 5-HT2B (Homo sapiens, UniProt P41595); assay: Calcium flux (FLIPR) assay, human 5-HT2B stably expressed in HEK-293 (Flp-In-293) cells; details: for Emax, % 5-HT 5-HT2B: normalized to 5-HT
[2] = target: 5-HT2A (Homo sapiens, UniProt P28223); assay: Calcium flux (FLIPR) assay, human 5-HT2A stably expressed in HEK-293 (Flp-In-293) cells; details: for Emax, % 5-HT 5-HT2A: normalized to 5-HT
[3] = target: T1, human 5-HT2C-INI (Homo sapiens, UniProt P28335); assay: Calcium flux (FLIPR) assay, human 5-HT2C-INI stably expressed in HEK-293 (Flp-In-293) cells; details: human 5-HT2C-INI in HEK-293 cells, FLIPR; for EC50: NA = no activity at 10 μM; for Emax, % 5-HT 5-HT2C: normalized to 5-HT
T1 sequence (P28335 33-458): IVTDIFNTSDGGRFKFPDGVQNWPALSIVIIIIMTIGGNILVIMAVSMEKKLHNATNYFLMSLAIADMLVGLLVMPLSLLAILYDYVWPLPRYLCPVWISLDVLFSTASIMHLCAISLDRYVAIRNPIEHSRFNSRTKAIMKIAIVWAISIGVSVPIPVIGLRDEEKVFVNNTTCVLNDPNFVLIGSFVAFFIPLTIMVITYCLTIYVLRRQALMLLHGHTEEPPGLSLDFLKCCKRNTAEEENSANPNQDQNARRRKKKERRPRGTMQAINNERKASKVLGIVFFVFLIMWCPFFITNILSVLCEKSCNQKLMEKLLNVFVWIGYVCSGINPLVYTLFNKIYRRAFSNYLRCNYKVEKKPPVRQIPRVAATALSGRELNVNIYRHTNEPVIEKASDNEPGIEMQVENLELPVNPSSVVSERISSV

[4] = EC50, nM 5-HT2B, human 5-HT2B in HEK-293 cells, NA = no activity at 10 μM
[5] = EC50, nM 5-HT2A, human 5-HT2A in HEK-293 cells, FLIPR, NA = no activity at 10 μM
[6] = human 5-HT2A in HEK-293 cells, FLIPR
[7] = read-out: EC50, nM 5-HT2A, human 5-HT2A in HEK-293 cells, FLIPR, NA = no activity at 10 μM

Sequence of 5-HT2B (P41595 whole entry): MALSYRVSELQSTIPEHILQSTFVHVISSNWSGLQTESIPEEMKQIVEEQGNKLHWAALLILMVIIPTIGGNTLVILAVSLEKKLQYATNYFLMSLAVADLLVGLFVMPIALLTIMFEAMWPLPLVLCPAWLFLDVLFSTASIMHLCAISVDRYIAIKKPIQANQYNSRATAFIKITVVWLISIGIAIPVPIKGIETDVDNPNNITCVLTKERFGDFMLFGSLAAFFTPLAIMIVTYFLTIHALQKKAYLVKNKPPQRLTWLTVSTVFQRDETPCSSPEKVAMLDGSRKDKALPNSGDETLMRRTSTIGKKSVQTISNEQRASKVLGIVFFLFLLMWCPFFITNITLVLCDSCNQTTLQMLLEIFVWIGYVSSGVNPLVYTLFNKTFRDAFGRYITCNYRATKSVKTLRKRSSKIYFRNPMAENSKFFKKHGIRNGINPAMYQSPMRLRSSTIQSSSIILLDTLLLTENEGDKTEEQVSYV
Sequence of 5-HT2A (P28223 whole entry): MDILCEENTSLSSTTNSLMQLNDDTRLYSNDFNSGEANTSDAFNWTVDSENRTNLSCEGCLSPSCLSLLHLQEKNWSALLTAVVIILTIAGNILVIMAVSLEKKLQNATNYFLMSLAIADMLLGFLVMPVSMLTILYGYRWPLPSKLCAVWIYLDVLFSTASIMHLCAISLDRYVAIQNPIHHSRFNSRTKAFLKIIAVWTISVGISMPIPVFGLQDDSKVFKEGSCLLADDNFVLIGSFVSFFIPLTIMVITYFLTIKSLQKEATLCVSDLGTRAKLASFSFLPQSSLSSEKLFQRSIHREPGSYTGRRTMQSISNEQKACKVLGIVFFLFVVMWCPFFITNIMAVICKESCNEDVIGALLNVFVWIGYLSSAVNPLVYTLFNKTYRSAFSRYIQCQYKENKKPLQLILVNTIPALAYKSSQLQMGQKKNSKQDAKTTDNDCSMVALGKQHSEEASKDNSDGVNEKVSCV

Row | Structure (SMILES) | EC50 [1, 4] | Emax, % 5-HT 5-HT2B ([1]; human 5-HT2B in HEK-293 cells) | EC50 [2, 5] | Emax, % 5-HT 5-HT2A [2, 6] | EC50 ([3]; EC50, nM 5-HT2C) | Emax, % 5-HT 5-HT2C [3] | EC50 [2] | EC50 ([1]; read-out: EC50, nM 5-HT2B, human 5-HT2B in HEK-293 cells, NA = no activity at 10 μM) | EC50 [2, 7] | EC50 ([3]; read-out: EC50, nM 5-HT2C)
1 | CCCOc1ccc(F)cc1C1CC1CN (single isomer, unassigned; (+)) [(+)-Example 7, (+)-(2-(5-Fluoro-2-propoxyphenyl)cyclopropyl)methanamine] | 1990 nM | (33%) % 5-HT | 1020 nM | (15%) % 5-HT | 11 nM | (88%) % 5-HT |  |  |  | 
2 | C=C(C)COc1ccc(Cl)cc1C1CC1CN (single isomer, unassigned; (+)) [(+)-Example 24, (+)-(2-(5-Chloro-2-((2-methylallyl)oxy)phenyl)cyclopropyl)methanamine] | 422 nM | (32%) % 5-HT |  | (26%) % 5-HT | 212 nM | (90%) % 5-HT | 903 nM |  |  | 
3 | C#CCOc1ccc(Cl)cc1C1CC1CN (single isomer, unassigned; (+)) [(+)-Example 26, (+)-(2-(5-Chloro-2-(prop-2-yn-1-yloxy)phenyl)cyclopropyl)methanamine] | 4600 nM | (29%) % 5-HT | 1010 nM | (21%) % 5-HT | 63 nM | (65%) % 5-HT |  |  |  | 
4 | CCOc1ccc(Cl)c(F)c1C1CC1CN (single isomer, unassigned; (+)) [(+)-Example 30, (+)-(2-(3-Chloro-6-ethoxy-2-fluorophenyl)cyclopropyl)methanamine] | 900 nM | (36%) % 5-HT | 820 nM | (53%) % 5-HT | 28 nM | (89%) % 5-HT |  |  |  | 
5 | CCOc1ccc(Cl)c(F)c1C1CC1CN (single isomer, unassigned; (-)) [(−)-Example 30, (−)-(2-(3-Chloro-6-ethoxy-2-fluorophenyl)cyclopropyl)methanamine] | 7420 nM | (51%) % 5-HT | 819 nM | (31%) % 5-HT | 97 nM | (90%) % 5-HT |  |  |  | 
6 | CCCOc1ccc(F)c(F)c1C1CC1CN (single isomer, unassigned; (+)) [(+)-Example 48, (+)-(2-(2,3-Difluoro-6-propoxyphenyl)cyclopropyl)methanamine] | 4220 nM | (39%) % 5-HT | 2070 nM | (18%) % 5-HT | 47 nM | (90%) % 5-HT |  |  |  | 
7 | COc1ccc(Cl)c(F)c1C1CC1CN (single isomer, unassigned; (-)) [(−)-Example 29, (−)-(2-(3-chloro-2-fluoro-6-methoxyphenyl)cyclopropyl)methanamine] |  | (64%) % 5-HT |  | (86%) % 5-HT |  | (93%) % 5-HT |  | 165 nM | 68 nM | 3.8 nM
8 | C=CCOc1ccc(Cl)c(F)c1C1CC1CN (single isomer, unassigned; (-)) [(−)-Example 32, (−)-(2-(6-(Allyloxy)-3-chloro-2-fluorophenyl)cyclopropyl)methanamine] |  | (5%) % 5-HT |  | (16%) % 5-HT | 165 nM | (87%) % 5-HT | 1080 nM |  |  | 
9 | C=CCOc1ccc(Cl)c(F)c1C1CC1CN (single isomer, unassigned; (+)) [(+)-Example 32, (+)-(2-(6-(Allyloxy)-3-chloro-2-fluorophenyl)cyclopropyl)methanamine] | 6980 nM | (69%) % 5-HT |  | (12%) % 5-HT | 116 nM | (90%) % 5-HT |  |  |  | 
10 | CCOc1cc(F)c(F)cc1C1CC1CN (single isomer, unassigned; (+)) [(+)-Example 41, (+)-(2-(2-Ethoxy-4,5-difluorophenyl)cyclopropyl)methanamine] | 55 nM | (59%) % 5-HT | 260 nM | (69%) % 5-HT | 2.9 nM | (105%) % 5-HT |  |  |  | 
11 | NCC1CC1c1cc(Cl)c(Cl)cc1OCCF (single isomer, unassigned; (-)) [(−)-Example 34, (−)-(2-(4,5-Dichloro-2-(2-fluoroethoxy)phenyl)cyclopropyl)methanamine] |  | (12%) % 5-HT |  | (4%) % 5-HT | 435 nM | (75%) % 5-HT |  |  |  | 
12 | C#CCOc1cc(F)c(Cl)cc1C1CC1CN (single isomer, unassigned; (+)) [(+)-Example 6, (+)-(2-(5-Chloro-4-fluoro-2-(prop-2-yn-1-yloxy)phenyl)cyclopropyl)methanamine] | 1010 nM | (30%) % 5-HT | 628 nM | (22%) % 5-HT | 67 nM | (80%) % 5-HT |  |  |  | 
13 | COc1ccc(F)c(F)c1[C@@H]1C[C@H]1CN (single isomer, unassigned) [(+)-Example 45, (+)-(2-(2,3-Difluoro-6-methoxyphenyl)cyclopropyl)methanamine] | 209 nM | (64%) % 5-HT | 437 nM | (79%) % 5-HT | 9.5 nM | (108%) % 5-HT |  |  |  | 
14 | CCOc1ccc(Cl)c(Cl)c1C1CC1CN (single isomer, unassigned; (-)) [(−)-Example 37, (−)-(2-(2,3-Dichloro-6-ethoxyphenyl)cyclopropyl)methanamine] | 6830 nM | (53%) % 5-HT | 625 nM | (12%) % 5-HT | 30 nM | (104%) % 5-HT |  |  |  | 
15 | CCOc1cc(F)c(Cl)cc1C1CC1CN (single isomer, unassigned; (+)) [(+)-Example 2, (+)-(2-(5-Chloro-2-ethoxy-4-fluorophenyl)cyclopropyl)methanamine] | 286 nM | (82%) % 5-HT | 194 nM | (66%) % 5-HT | 4.1 nM | (92%) % 5-HT |  |  |  | 
16 | CCOc1ccc(Cl)cc1C1CC1CN (single isomer, unassigned; (+)) [(+)-Example 11, (+)-(2-(5-Chloro-2-ethoxyphenyl)cyclopropyl)methanamine] | 86 nM | (45%) % 5-HT | 1210 nM | (49%) % 5-HT | 13 nM | (91%) % 5-HT |  |  |  | 
17 | NCC1CC1c1cc(Cl)ccc1OCC(F)F (single isomer, unassigned; (+)) [(+)-Example 21, (+)-(2-(5-Chloro-2-(2,2-difluoroethoxy)phenyl)cyclopropyl)methanamine] | 839 nM | (27%) % 5-HT | 1810 nM | (31%) % 5-HT | 91 nM | (81%) % 5-HT |  |  |  | 
18 | COc1cc(F)c(F)cc1C1CC1CN (single isomer, unassigned; (+)) [(+)-Example 40, (+)-(2-(4,5-Difluoro-2-methoxyphenyl)cyclopropyl)methanamine] |  | (69%) % 5-HT |  |  |  | (108%) % 5-HT |  |  | 81 nM | 
